Assays:
[1] = tested on: tim10-1 mutant overexpressing import components; experiment: Yeast growth inhibition, tim10-1 mutant overexpressing import components; assay type: cell-based
Text: In general, a standard set of genetic and molecular techniques were used to generate the strains in this study (31, 32). Screening strains were generated based on previously characterized temperature sensitive mutants (see supplementary table 1). The snq1 and pdr5 deletions were introduced in each strain by strain mating with MDY326 or PCR-mediated deletion (33, 34). Overexpression strains were generated by transforming 2p yeast shuttle vectors carrying the gene of interest with the native promoter into the tim10-1 strain using a standard LiCl protocol (35). Transformed yeast was maintained on selective media appropriate for the plasmid's auxotrophic marker. Strains lacking mitochondrial DNA (rho null) were generated by two rounds of selection of the parent on YPD plates supplemented with ethidium bromide (40 μg/ml) followed by two rounds of single colony selection on YPD plates.
A primary screen was performed using freshly streaked tim10-1 diluted in YPD to an OD600 of approximately 0.0002 and kept on ice throughout the screening run. […] Each plate was shaken in a Beckman orbital shaker to resuspend settled cells, and the OD600 in each well was read by a Wallac Victor plate reader (Perkin Elmer). The top 600 growth inhibitory compounds were determined and assembled into two plates. […]

Erv1 = molecular target: T1, Erv1 (Saccharomyces cerevisiae, UniProt P27882); experiment: Erv1-His pull-down of partner proteins from mitochondria; assay type: binding, yeast; conditions: 50 μM, 30 min
T1 construct: made in house
T1 sequence (P27882 1-189): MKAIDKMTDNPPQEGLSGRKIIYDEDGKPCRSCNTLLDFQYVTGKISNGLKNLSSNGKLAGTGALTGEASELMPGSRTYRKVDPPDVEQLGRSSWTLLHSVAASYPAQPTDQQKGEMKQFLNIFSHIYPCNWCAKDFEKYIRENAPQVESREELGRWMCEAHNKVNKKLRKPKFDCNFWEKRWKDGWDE
Experimental: (A) Mitochondria from a strain expressing C-terminal histidine-tagged Erv1 were incubated with 50 μM MitoBloCK-6 or 1% DMSO for 30 min at 25° C. followed by solubilization in 1% digitonin buffer. As a control, 100 μg of extract was withdrawn (T), and 500 μg lysate was incubated with Ni+^2-agarose beads. The beads were washed and bound proteins (B) were eluted with SDS-PAGE sample buffer. To test effectiveness of binding, 100 μg of the unbound protein fraction (S) was also included. Proteins were analyzed by immunoblotting with polyclonal antibodies against Mia40, Erv1, and cyt c. (B) Recombinant Erv1 was preincubated with MitoBloCK-6 or 1% DMSO for 1 hr at 25° C. and then Erv1 (1 μM) was incubated with reduced Tim13 (15 μM) and Mia40 (1 μM) in a time course assay (Tienson et al., 2009). Aliquots were removed at the indicated times and free thiols on Tim13 were modified with AMS addition. Oxidized and reduced Tim13 were detected by non-reducing SDS-PAGE and immunoblotting with antibodies against Tim13.
MitoBloCK-6 was preincubated with mitochondria isolated from the Erv1-His strain followed by solubilization in 1.0% digitonin and Erv1-His was purified with Ni′ agarose. In DMSO treated cells, a small fraction of the Mia40 and half of the cyt c co-purified with Erv1, as reported previously (Tienson et al., 2009). […]

ALR = molecular target: T2, ALR (Homo sapiens, UniProt P55789); experiment: In vitro ALR activity, Amplex Red-HRP assay; assay type: biochemical
T2 construct: Recombinant long form ALR, residues 1 to 205, was purified under native conditions; made in house
T2 sequence (P55789 whole entry, the tested form may be a part): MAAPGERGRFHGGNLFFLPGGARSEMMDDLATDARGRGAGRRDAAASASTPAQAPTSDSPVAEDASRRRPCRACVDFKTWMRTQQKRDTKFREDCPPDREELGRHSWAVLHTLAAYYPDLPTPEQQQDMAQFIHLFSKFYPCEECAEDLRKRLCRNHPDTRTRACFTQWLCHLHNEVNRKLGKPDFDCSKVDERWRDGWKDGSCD

NC(=S)N/N=C/c1c(O)c(Br)cc2oc3c(c12)CCCC3 [MitoBloCK-1]
growth inhibition of tim10-1 mutant with overexpression of import components [1]: did not alter the ability of MitoBloCK-1 to inhibit growth

Oc1c(Cl)cc(Cl)cc1/C=N/c1ccc(Nc2ccccc2)cc1 [MitoBloCK-6]
binding of Mia40 to Erv1 decreased by (Erv1): 75%
binding of cyt c to Erv1 decreased by (Erv1): 95%
IC50 (ALR): 700 nM
